The source made the active and inactive calls. No cut-off for these calls is given here.
Assays:
Mus musculus [1] = assay: Antianxiety activity in mouse assessed as ataxia, catatonia, and alterations in motor activity and startle reflex at 50 mg/kg, ip after 30 to 120 mins; format: functional, organism-based; set-up: dose 50 mg/kg
Mus musculus [2] = assay: Antianxiety activity in mouse assessed as ataxia, catatonia, and alterations in motor activity and startle reflex at 100 mg/kg, ip after 30 to 120 mins; format: functional, organism-based; set-up: dose 100 mg/kg
Rattus norvegicus [3] = assay: Antianxiety activity in po dosed rat assessed as punished responding by conditioned lick suppression behavioral test; format: functional; conditions: read-out: MED
Mus musculus [4] = assay: […] in po dosed mouse assessed as potentiation of sodium barbital-induced loss of the righting reflex in 50% mouse; format: functional
Mus musculus [5] = assay: […] in po dosed mouse assessed as potentiation of ethanol-induced loss of the righting reflex in 50% mouse; format: functional
Rattus norvegicus [6] = assay: Antianxiety activity in ip dosed rat assessed as punished responding by conditioned lick suppression behavioral test; format: functional; conditions: read-out: MED
Rattus norvegicus [7] = assay: Antipsychotic activity in ip dosed rat assessed as reduction in avoidance responding by Sidman avoidance test; format: functional
[8] = Acute toxicity in mouse measured following single ip dose; format: organism-based; conditions: in vivo
[9] = Acute toxicity in mouse measured following single po dose; format: organism-based; conditions: in vivo
Rattus norvegicus [10] = assay: Anticonvulsant activity in ip dosed rat assessed as impairment of motor performance by spontaneous motor activity test; format: functional
Rattus norvegicus [11] = assay: Anticonvulsant activity in ip dosed rat assessed as impairment of motor performance by forced motor activity test; format: functional
Mus musculus [12] = assay: Antiaggressive activity in mouse assessed as change in foot shock-induced fighting behavior at 20 mg/kg, po after 30 mins; format: functional
Mus musculus [13] = assay: Antiaggressive activity in mouse assessed as change in foot shock-induced fighting behavior at 80 mg/kg, po after 30 mins; format: functional
Rattus norvegicus [14] = assay: Antiaggressive activity in Long-Evans black-hooded rat assessed as suppression of muricide behavior for 2 mins period at 20 mg/kg, po; format: functional; conditions: Long-Evans black-hood
Mus musculus [15] = assay: Antiaggressive activity in mouse assessed as change in foot shock-induced fighting behavior at 20 mg/kg, po after 90 mins; format: functional
Mus musculus [16] = assay: Antiaggressive activity in mouse assessed as change in foot shock-induced fighting behavior at 80 mg/kg, po after 90 mins; format: functional
Rhesus monkey [17] = assay: Antiaggressive activity in Rhesus monkey assessed as reduction in biting, pushing or attacking the pole responses at 25 to 100 mg/mg, po after 0 to 6 hrs; format: functional, organism-based; conditions: Macaca mulatta
Rattus norvegicus [18] = assay: Antiaggressive activity in Long-Evans black-hooded rat assessed as suppression of muricide behavior for 2 mins period at 80 mg/kg, po; format: functional; conditions: Long-Evans black-hood
Rhesus monkey [19] = assay: Antiaggressive activity in Rhesus monkey assessed as reduction in biting, pushing or attacking the pole responses at 2.5 to 10 mg/mg, po after 0 to 6 hrs; format: functional, organism-based; conditions: Macaca mulatta

SMILES | Activity (Mus musculus [1]) | Activity (Mus musculus [2]) | other results
CC(=O)Cc1cc(C)nc2ccnn12 | Active | Active | 
c1cnc2ccnn2c1 | Active | Active | 
CCCc1cc(C)nc2c(Br)cnn12 | Active | Active | 
Cc1cn2nccc2nc1C | inactive | inactive | 
CCCCc1cc(CCCC)n2ncc(Br)c2n1 | inactive | inactive | 
Cc1ccn2nccc2n1 | Active | Active | 
Cc1cc(C)n2nc(Cl)cc2n1 | Active | Active | 
Cc1ccnc2c(Br)cnn12 | inactive | inactive | 
Cc1cc(C)n2ncc(C#N)c2n1 | inactive | inactive | 
Cc1cc(C)n2ncc(-c3ccccc3)c2n1 | inactive | inactive | 
CNC1=Nc2ccc(Cl)cc2C(c2ccccc2)=[N+]([O-])C1 [CHLORDIAZEPOXIDE] |  |  | minimal effective dose (Rattus norvegicus [3]): 60 mg/kg; HD50 (Mus musculus [4]): 6.4 mg/kg; HD50 (Mus musculus [5]): 12.6 mg/kg; minimal effective dose (Rattus norvegicus [6]): 20 mg/kg; ED50 (Rattus norvegicus [7]): 14.3 mg/kg; LD50 [8]: 183 mg/kg; LD50 [9]: 939 mg/kg
CCOC(=O)c1cnn2c(C)cc(C)nc12 | inactive | inactive | 
Cc1cc(C)n2ncc(C(N)=S)c2n1 | inactive | inactive | 
Cc1cc(C)n2ncc(F)c2n1 | Active | Active | minimal effective dose (Rattus norvegicus [3]): 80 mg/kg; minimal effective dose (Rattus norvegicus [6]): 40 mg/kg; ED50 (Rattus norvegicus [7]): 40.2 mg/kg
CN(C)CCCN1c2ccccc2Sc2ccc(Cl)cc21 [CHLORPROMAZINE] |  |  | ED50 (Rattus norvegicus [7]): 3.7 mg/kg
Cc1cc(C)n2ncc(N=O)c2n1 | inactive | inactive | 
Cc1cc(C)n2nccc2n1 | Active | Active | minimal effective dose (Rattus norvegicus [3]): 60 mg/kg; HD50 (Mus musculus [4]): 118.8 mg/kg; ED50 (Rattus norvegicus [10]): 79 mg/kg; HD50 (Mus musculus [5]): 228.6 mg/kg; ED50 (Rattus norvegicus [11]): 65 mg/kg; minimal effective dose (Rattus norvegicus [6]): 40 mg/kg; ED50 (Rattus norvegicus [7]): 60.3 mg/kg; LD50 [8]: 537 mg/kg; LD50 [9]: 928 mg/kg
Cc1cc(C)n2ncc(N)c2n1 | inactive | inactive | 
Cc1cc(C)n2ncc(SC#N)c2n1 | inactive | inactive | 
Cc1ccnc2ccnn12 | inactive | inactive | 
CCc1cc(C)nc2c(Br)cnn12 | Active | Active | 
Cc1cc(C)n2ncc(C(N)=O)c2n1 | Active | Active | 

SMILES | Activity (Mus musculus [1]) | Activity (Mus musculus [2]) | other results
Cc1cc(C)n2ncc(S(=O)(=O)N3CCN(C)CC3)c2n1 | inactive | inactive | 
Cc1cc(C)n2ncc(S(=O)(=O)Cl)c2n1 | inactive | inactive | 
Cc1cc(C)n2[nH]c(=O)cc2n1 | inactive | inactive | 
Cc1cc(C)n2nc(O)c(Br)c2n1 | inactive | inactive | 
Brc1cnn2cccnc12 | inactive | inactive | 
Cc1cc(C)n2ncc(C)c2n1 | Active | Active | 
Cc1cc(C)n2ncc(Br)c2n1 | Active | Active | Activity (Mus musculus [12]): 30%; minimal effective dose (Rattus norvegicus [3]): 20 mg/kg; Activity (Mus musculus [13]): -46%; inhibition in vivo at 20 mg/kg (Rattus norvegicus [14]): 0%; HD50 (Mus musculus [4]): 61.9 mg/kg; ED50 (Rattus norvegicus [10]): 27.1 mg/kg; HD50 (Mus musculus [5]): 236.8 mg/kg; Activity (Mus musculus [15]): 13%; Activity (Mus musculus [16]): -8%; ED50 (Rattus norvegicus [11]): 18.4 mg/kg; minimal effective dose (Rattus norvegicus [6]): 10 mg/kg; inhibition (Rhesus monkey [17]): inactive; inhibition in vivo at 80 mg/kg (Rattus norvegicus [18]): 60%; ED50 (Rattus norvegicus [7]): 29.5 mg/kg; LD50 [8]: 458 mg/kg; LD50 [9]: 1350 mg/kg
Cc1cnc2ccnn2c1 | inactive | inactive | 
Cc1cc(C)n2ncc(Cl)c2n1 | Active | Active | Activity (Mus musculus [12]): -3%; minimal effective dose (Rattus norvegicus [3]): 10 mg/kg; Activity (Mus musculus [13]): -89%; inhibition in vivo at 20 mg/kg (Rattus norvegicus [14]): 0%; HD50 (Mus musculus [4]): 60.9 mg/kg; ED50 (Rattus norvegicus [10]): 38.6 mg/kg; HD50 (Mus musculus [5]): 391.7 mg/kg; Activity (Mus musculus [15]): 22%; Activity (Mus musculus [16]): -57%; ED50 (Rattus norvegicus [11]): 32.7 mg/kg; minimal effective dose (Rattus norvegicus [6]): 10 mg/kg; inhibition (Rhesus monkey [17]): inactive; inhibition in vivo at 80 mg/kg (Rattus norvegicus [18]): 80%; ED50 (Rattus norvegicus [7]): 31.8 mg/kg; LD50 [8]: 369 mg/kg; LD50 [9]: 599 mg/kg
Cc1cc(C)n2ncc(S)c2n1 | inactive | inactive | 
CC(C)c1cc(C(C)C)n2ncc(Br)c2n1 | inactive | inactive | 
Cc1cc(C)n2ncc(C(=O)C(F)(F)F)c2n1 | inactive | inactive | 
Cc1cc(C)n2ncc(S(N)(=O)=O)c2n1 | inactive | inactive | 
Cc1cn2ncc(Br)c2nc1C | inactive | inactive | 
Cc1cc(C)n2ncc(I)c2n1 | Active | Active | minimal effective dose (Rattus norvegicus [3]): 120 mg/kg; HD50 (Mus musculus [4]): 142.8 mg/kg; ED50 (Rattus norvegicus [10]): 24.9 mg/kg; HD50 (Mus musculus [5]): 296.1 mg/kg; ED50 (Rattus norvegicus [11]): 19.8 mg/kg; minimal effective dose (Rattus norvegicus [6]): 20 mg/kg; ED50 (Rattus norvegicus [7]): 39.1 mg/kg; LD50 [8]: 612 mg/kg; LD50 [9]: > 3000 mg/kg
CCc1cc(CC)n2ncc(Br)c2n1 | Active | Active | 
CN1C(=O)CN=C(c2ccccc2)c2cc(Cl)ccc21 [DIAZEPAM] |  |  | minimal effective dose (Rattus norvegicus [3]): 20 mg/kg; HD50 (Mus musculus [4]): 0.5 mg/kg; ED50 (Rattus norvegicus [10]): 9.2 mg/kg; HD50 (Mus musculus [5]): 1.5 mg/kg; ED50 (Rattus norvegicus [11]): 5.6 mg/kg; inhibition (Rhesus monkey [19]): inactive; minimal effective dose (Rattus norvegicus [6]): 20 mg/kg; ED50 (Rattus norvegicus [7]): 11.3 mg/kg
Cc1cc(C)n2nc(Br)cc2n1 | Active | Active | 
Cc1cc(C)n2ncc([N+](=O)[O-])c2n1 | inactive | inactive | 
Cc1cc(C)n2ncc(/C(N)=N/O)c2n1 | inactive | inactive | 
FC(F)(F)c1cc(C(F)(F)F)n2nccc2n1 | inactive | inactive | 
